Assay results published in the supplement of paper PMC10307832.

Compound: Cc1cc(Nc2cc(N3CCN(C)CC3)nc(Sc3ccc(NC(=O)C4CC4)cc3)n2)n[nH]1 [Tozasertib] + CC1(C)CCC(c2ccc(Cl)cc2)=C(CN2CCN(c3ccc(C(=O)NS(=O)(=O)c4ccc(N[C@H](CCN5CCOCC5)CSc5ccccc5)c(S(=O)(=O)C(F)(F)F)c4)cc3)CC2)C1 [Navitoclax] (partner 0.5 µM)
Assay: relative viability (nuclei count vs DMSO), 5 days (fraction); higher = more cells survive
Method in brief: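 Lung cancer cell lines, seeded in 1536-well plates, were treated the following day by pin tool with a single drug or with five library-drug doses (not always all listed) in √10 steps on top of a fixed anchor-drug dose. Cells were fixed and nuclei stained in one step after 5 days, and nuclei were counted. Relative viability is the nuclei count for treated wells divided by that for vehicle wells, reported as medians of duplicate plates.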

| Cell Line | relative viability (first compound 0.004 µM) | relative viability (first compound 0.01265 µM) | relative viability (first compound 0.04 µM) | relative viability (first compound 0.1265 µM) |
| --- | --- | --- | --- | --- |
| HARA | 1.17 | 1.07 | 1.15 | 1.07 |
| PC-14 | 1.03 | – | 1.01 | – |
| EPLC-272H | 1.1 | 1.17 | 1.08 | – |
| NCI-H1355 | 0.867 | 0.917 | 1.15 | 0.768 |
| NCI-H1944 | 0.96 | 1.05 | 1.02 | 0.695 |
| NCI-H460 | 1.18 | 1.03 | 1.46 | 0.788 |
| NCI-H322M | 1.18 | 1.28 | 1.24 | 1.35 |
| NCI-H1666 | 0.948 | 0.863 | 0.918 | 0.87 |
| 201T | 1.16 | 1.22 | 1.23 | 1.16 |
| LC-2-ad | 0.412 | 0.431 | 0.396 | 0.147 |
| NCI-H1755 | 0.978 | 0.977 | 1.02 | 0.875 |
| BEN | 0.0692 | 0.0723 | 0.0504 | 0.0587 |
| EKVX | 0.932 | 0.939 | 1.06 | 0.914 |
| SW 1573 | 1.1 | 1.06 | 1.15 | 0.816 |
| NCI-H441 | 0.761 | 0.543 | 0.483 | 0.55 |
| NCI-H1437 | 1.05 | 0.974 | 1.09 | 0.87 |
| H3255 | 0.336 | 0.594 | 0.569 | 0.463 |
| CAL-12T | 1.33 | 1.14 | 1.31 | 1.08 |
| LCLC-97TM1 | – | 0.434 | 0.466 | 0.242 |
| EMC-BAC-2 | 1.18 | 1.14 | 1.25 | 0.812 |
| LXF-289 | 0.964 | 0.889 | 0.807 | 0.588 |
| NCI-H2085 | 1.14 | 1.12 | 1.13 | 0.816 |

| Cell Line | relative viability (first compound 0.004 µM) | relative viability (first compound 0.01265 µM) | relative viability (first compound 0.04 µM) | relative viability (first compound 0.1265 µM) |
| --- | --- | --- | --- | --- |
| NCI-H647 | 1.06 | 1.15 | 1.03 | 0.882 |
| NCI-H2023 | 1.04 | 0.983 | 1.05 | 0.924 |
| UMC-11 | 0.381 | 0.295 | 0.303 | 0.13 |
| NCI-H520 | 1.08 | 1.03 | 1.17 | 0.602 |
| NCI-H1734 | 0.851 | 0.761 | 0.834 | 0.504 |
| HCC-44 | 1.04 | 0.977 | 0.985 | 0.955 |
| HCC-366 | 1.09 | 0.945 | 1.17 | 0.752 |
| NCI-H596 | 1.05 | 0.815 | 1.07 | 0.827 |
| COR-L 105 | 0.787 | 0.644 | 0.932 | 0.542 |
| NCI-H1993 | 0.901 | 0.884 | 0.927 | 0.651 |
| NCI-H1651 | 1.17 | 1.05 | 1.18 | 1.07 |
| HCC-15 | 0.692 | 0.692 | 0.768 | 0.641 |
| ChaGo-K-1 | 1.13 | 0.946 | 1.2 | 0.3 |
| HCC-827 | 0.973 | 1.09 | 1.03 | 0.925 |
| HOP-62 | 1.06 | 0.946 | 1.08 | 0.99 |
| NCI-H2087 | 1.01 | 0.872 | 1.1 | 0.644 |
| NCI-H3122 | 0.996 | 1 | 1.04 | 1.05 |
| PC-3 [JPC-3] | 0.579 | 0.699 | 0.935 | 0.756 |
| NCI-H1650 | – | 0.981 | 1.24 | 0.936 |
| SK-MES-1 | 1.17 | 1.23 | 1.4 | 1.02 |
| NCI-H1792 | 0.681 | 0.481 | – | 0.418 |
| NCI-H2126 | 0.842 | 0.802 | 0.963 | 0.865 |

| Cell Line | relative viability (first compound 0.004 µM) | relative viability (first compound 0.01265 µM) | relative viability (first compound 0.04 µM) | relative viability (first compound 0.1265 µM) |
| --- | --- | --- | --- | --- |
| NCI-H1703 | 1.35 | 1.14 | 1.26 | 0.366 |
| A-427 | – | 0.979 | 0.995 | 0.755 |
| NCI-H2170 | 0.556 | 0.565 | 0.583 | 0.557 |
| NCI-H23 | 0.842 | 0.867 | 0.805 | 0.472 |
| NCI-H1793 | 0.492 | 0.501 | 0.453 | 0.33 |
| RERF-LC-KJ | 0.994 | 0.93 | 0.804 | 0.997 |
| LOU-NH91 | 0.426 | 0.704 | 0.726 | 0.665 |
| NCI-H1915 | 0.767 | 0.765 | 0.773 | 0.623 |
| NCI-H1395 | 1.28 | 1.13 | 1.06 | 0.825 |
| NCI-H1975 | 1.14 | 1.2 | 1.23 | 1.1 |
| A549 | 1.26 | 1.29 | 1.14 | 0.179 |
| NCI-H727 | 0.481 | 0.5 | 0.489 | 0.242 |
| LK-2 | 0.878 | 0.736 | 0.981 | 0.392 |
| HCC-78 | 0.822 | 0.633 | – | 0.539 |
| NCI-H2347 | 0.921 | 0.761 | 0.901 | 0.755 |
| NCI-H2228 | 0.717 | – | 1.23 | 1.06 |
| COR-L23 | 1 | 0.897 | 0.954 | 0.757 |
| NCI-H838 | 1.26 | 1.14 | 1.4 | 1.14 |
| LU99A | 0.739 | 0.636 | 0.715 | 0.414 |
| SK-LU-1 | 0.894 | 0.939 | 0.981 | 0.635 |
| NCI-H2405 | 0.795 | 0.95 | 0.671 | 0.871 |
| NCI-H2009 | 1.21 | 1.16 | 1.17 | 1.17 |
